How the values were obtained:
Assay in all cases: multi-sample expression analysis, band intensity
Assay type in all cases: in vivo
Conditions in all cases: Pooled
[1] = test system: band b1i0_51.7
Excerpt: (§1) To practice the invention, one skilled in the art obtains a source of biological samples, as well as expression information about the biological samples, i.e., expression information relative to one or more genes or polypeptides encoded therein. Data is collected for a particular phenotype appearing within a given population under study, whereby expression of that phenotype is to be determined within the biological sample under study. The phenotype is correlated to a specific genotype, which is then represented as a band with a given intentity, thus indicative of gene expression levels, and is then compared to control samples. Alternatively, the response of a gene to dosage with one or more drugs is determined by band intensity. The standard deviation from the mean (StdDev) is calculated for the control samples, and is fit to functional form in the following equation: […]
(§2) A multi-sample expression analysis was run using the program described in Example 1. For each drug run, only runs for genes producing bands with a p-value<10^−5 in at least 2 of the following 3 comparisons were selected: low dose versus vehicle, high dose versus vehicle and low dose versus high dose. […] Since clusters found using all 13K bands included some of the best 2K bands, it was concluded that no essential signal was lost (see FIGS. 3 and 4). […] A comparison using the same analytic tests on only the best 2K bands. It can be seen that the Chi Square metric provides a better distinction between low and high doses than the correlation metric, which is not able to distinguish between the low dose and the high dose (see FIG. 6). The low-dose/high dose statistical variation is more pronounced when only the best 2K bands are selected.

[2] = test system: band b1i0_53.0
Excerpt: as §1, §2

[3] = test system: band b1i0_54.5
Excerpt: as §1, §2

[4] = test system: band b1i0_57.4
Excerpt: as §1, §2

[5] = test system: band b1i0_60.7
Excerpt: as §1, §2

[6] = test system: band b1i0_62.5
Excerpt: as §1, §2

[7] = test system: band b1i0_63.7
Excerpt: as §1, §2

[8] = test system: band b1i0_69.4
Excerpt: as §1, §2

**Q.** With `Cc1cc(C(C)(C)C)c(O)c(C(C)(C)C)c1` [BHT] as the molecule, how does the “band intensity b1i0_51.7” value ([1]; High dose, 1d) read?
**A.** 24.21

**Q.** And the “band intensity b1i0_51.7” value ([1]; High dose, 3d)?
**A.** 25.0702

**Q.** What about the “band intensity b1i0_51.7” value ([1]; High dose, 7d) of the same molecule?
**A.** 17.72

**Q.** And the “band intensity b1i0_51.7” value ([1]; High dose, 14d)?
**A.** 26.78

**Q.** What about the “band intensity b1i0_51.7” value ([1]; Low dose, 1d) of the same molecule?
**A.** 18.78

**Q.** What about the “band intensity b1i0_51.7” value ([1]; Low dose, 3d) of the same molecule?
**A.** 18.02

**Q.** What about the “band intensity b1i0_51.7” value ([1]; Low dose, 7d) of the same molecule?
**A.** 12.13

**Q.** What about the “band intensity b1i0_51.7” value ([1]; Low dose, 14d) of the same molecule?
**A.** 18.31

**Q.** And the “band intensity b1i0_53.0” value ([2]; High dose, 1d)?
**A.** 104.3

**Q.** And the “band intensity b1i0_53.0” value ([2]; High dose, 3d)?
**A.** 101.7

**Q.** And the “band intensity b1i0_53.0” value ([2]; High dose, 7d)?
**A.** 104.1

**Q.** And the “band intensity b1i0_53.0” value ([2]; High dose, 14d)?
**A.** 82.87

**Q.** What about the “band intensity b1i0_53.0” value ([2]; Low dose, 1d) of the same molecule?
**A.** 108.8

**Q.** And the “band intensity b1i0_53.0” value ([2]; Low dose, 3d)?
**A.** 87.18

**Q.** And the “band intensity b1i0_53.0” value ([2]; Low dose, 7d)?
**A.** 104.5

**Q.** And the “band intensity b1i0_53.0” value ([2]; Low dose, 14d)?
**A.** 96.38

**Q.** And the “band intensity b1i0_54.5” value ([3]; High dose, 1d)?
**A.** 82.82

**Q.** And the “band intensity b1i0_54.5” value ([3]; High dose, 3d)?
**A.** 96.92

**Q.** And the “band intensity b1i0_54.5” value ([3]; High dose, 7d)?
**A.** 81.74

**Q.** And the “band intensity b1i0_54.5” value ([3]; High dose, 14d)?
**A.** 93.42

**Q.** And the “band intensity b1i0_54.5” value ([3]; Low dose, 1d)?
**A.** 93.97

**Q.** And the “band intensity b1i0_54.5” value ([3]; Low dose, 3d)?
**A.** 101.5

**Q.** What about the “band intensity b1i0_54.5” value ([3]; Low dose, 7d) of the same molecule?
**A.** 92.42

**Q.** What about the “band intensity b1i0_54.5” value ([3]; Low dose, 14d) of the same molecule?
**A.** 91.73

**Q.** And the “band intensity b1i0_57.4” value ([4]; High dose, 1d)?
**A.** 1177

**Q.** And the “band intensity b1i0_57.4” value ([4]; High dose, 3d)?
**A.** 1235

**Q.** What about the “band intensity b1i0_57.4” value ([4]; High dose, 7d) of the same molecule?
**A.** 990.2

**Q.** What about the “band intensity b1i0_57.4” value ([4]; High dose, 14d) of the same molecule?
**A.** 1049

**Q.** And the “band intensity b1i0_57.4” value ([4]; Low dose, 1d)?
**A.** 1182

**Q.** And the “band intensity b1i0_57.4” value ([4]; Low dose, 3d)?
**A.** 1224

**Q.** What about the “band intensity b1i0_57.4” value ([4]; Low dose, 7d) of the same molecule?
**A.** 1156

**Q.** What about the “band intensity b1i0_57.4” value ([4]; Low dose, 14d) of the same molecule?
**A.** 1229

**Q.** What about the “band intensity b1i0_60.7” value ([5]; High dose, 1d) of the same molecule?
**A.** 71.52

**Q.** What about the “band intensity b1i0_60.7” value ([5]; High dose, 3d) of the same molecule?
**A.** 70.09

**Q.** What about the “band intensity b1i0_60.7” value ([5]; High dose, 7d) of the same molecule?
**A.** 62.31

**Q.** And the “band intensity b1i0_60.7” value ([5]; High dose, 14d)?
**A.** 68.41

**Q.** What about the “band intensity b1i0_60.7” value ([5]; Low dose, 1d) of the same molecule?
**A.** 72.36

**Q.** And the “band intensity b1i0_60.7” value ([5]; Low dose, 3d)?
**A.** 69.13

**Q.** What about the “band intensity b1i0_60.7” value ([5]; Low dose, 7d) of the same molecule?
**A.** 79.01

**Q.** What about the “band intensity b1i0_60.7” value ([5]; Low dose, 14d) of the same molecule?
**A.** 90.11

**Q.** What about the “band intensity b1i0_62.5” value ([6]; High dose, 1d) of the same molecule?
**A.** 81.06

**Q.** What about the “band intensity b1i0_62.5” value ([6]; High dose, 3d) of the same molecule?
**A.** 56.24

**Q.** What about the “band intensity b1i0_62.5” value ([6]; High dose, 7d) of the same molecule?
**A.** 81.59

**Q.** And the “band intensity b1i0_62.5” value ([6]; High dose, 14d)?
**A.** 57.74

**Q.** What about the “band intensity b1i0_62.5” value ([6]; Low dose, 1d) of the same molecule?
**A.** 74.66

**Q.** And the “band intensity b1i0_62.5” value ([6]; Low dose, 3d)?
**A.** 70.37

**Q.** What about the “band intensity b1i0_62.5” value ([6]; Low dose, 7d) of the same molecule?
**A.** 62.54

**Q.** And the “band intensity b1i0_62.5” value ([6]; Low dose, 14d)?
**A.** 63.7

**Q.** And the “band intensity b1i0_63.7” value ([7]; High dose, 1d)?
**A.** 240.7

**Q.** What about the “band intensity b1i0_63.7” value ([7]; High dose, 3d) of the same molecule?
**A.** 120.1

**Q.** And the “band intensity b1i0_63.7” value ([7]; High dose, 7d)?
**A.** 313.4

**Q.** What about the “band intensity b1i0_63.7” value ([7]; High dose, 14d) of the same molecule?
**A.** 41.88

**Q.** And the “band intensity b1i0_63.7” value ([7]; Low dose, 1d)?
**A.** 152.6

**Q.** What about the “band intensity b1i0_63.7” value ([7]; Low dose, 3d) of the same molecule?
**A.** 171.4

**Q.** And the “band intensity b1i0_63.7” value ([7]; Low dose, 7d)?
**A.** 132.3

**Q.** And the “band intensity b1i0_63.7” value ([7]; Low dose, 14d)?
**A.** 161.6

**Q.** What about the “band intensity b1i0_69.4” value ([8]; High dose, 1d) of the same molecule?
**A.** 241.7

**Q.** What about the “band intensity b1i0_69.4” value ([8]; High dose, 3d) of the same molecule?
**A.** 251.2

**Q.** And the “band intensity b1i0_69.4” value ([8]; High dose, 7d)?
**A.** 255.9

**Q.** What about the “band intensity b1i0_69.4” value ([8]; High dose, 14d) of the same molecule?
**A.** 268.8

**Q.** What about the “band intensity b1i0_69.4” value ([8]; Low dose, 1d) of the same molecule?
**A.** 272.5

**Q.** What about the “band intensity b1i0_69.4” value ([8]; Low dose, 3d) of the same molecule?
**A.** 190.6

**Q.** And the “band intensity b1i0_69.4” value ([8]; Low dose, 7d)?
**A.** 282.9

**Q.** And the “band intensity b1i0_69.4” value ([8]; Low dose, 14d)?
**A.** 286.5
